Assay results from US12180207B2 (ARRAY BIOPHARMA INC., priority 2018, dated 2024).
pIC50: −log10 of the molar value.

Columns and labels:
[1] = biological target: dephosphorylated FGFR1 (SEQ ID NO: 1, amino acids 458 to 765) (Homo sapiens (Human), UniProt P11362); assay: FGFR enzyme binding assay (HTRF tracer displacement), FGFR1; details: 5 nM dephosphorylated FGFR1, average of multiple determinations if made
In short: (§1)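 Kinase and tracer were incubated with compound for 60 minutes at 22° C. Tracer displacement was then measured by HTRF, and results were expressed as POC with 1 μM control inhibitor defining full displacement.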

[2] = biological target: T1, HEK-293 cells transfected with dox-inducible human wild type FGFR3 (Homo sapiens (Human), UniProt P22607); assay: FGFR3 pFGFR cell assay (ELISA); format: cell-based; details: HEK-293 dox-inducible FGFR3, 1 hour compound, 100 ng/ml FGF-acidic
T1 sequence (P22607 23-806): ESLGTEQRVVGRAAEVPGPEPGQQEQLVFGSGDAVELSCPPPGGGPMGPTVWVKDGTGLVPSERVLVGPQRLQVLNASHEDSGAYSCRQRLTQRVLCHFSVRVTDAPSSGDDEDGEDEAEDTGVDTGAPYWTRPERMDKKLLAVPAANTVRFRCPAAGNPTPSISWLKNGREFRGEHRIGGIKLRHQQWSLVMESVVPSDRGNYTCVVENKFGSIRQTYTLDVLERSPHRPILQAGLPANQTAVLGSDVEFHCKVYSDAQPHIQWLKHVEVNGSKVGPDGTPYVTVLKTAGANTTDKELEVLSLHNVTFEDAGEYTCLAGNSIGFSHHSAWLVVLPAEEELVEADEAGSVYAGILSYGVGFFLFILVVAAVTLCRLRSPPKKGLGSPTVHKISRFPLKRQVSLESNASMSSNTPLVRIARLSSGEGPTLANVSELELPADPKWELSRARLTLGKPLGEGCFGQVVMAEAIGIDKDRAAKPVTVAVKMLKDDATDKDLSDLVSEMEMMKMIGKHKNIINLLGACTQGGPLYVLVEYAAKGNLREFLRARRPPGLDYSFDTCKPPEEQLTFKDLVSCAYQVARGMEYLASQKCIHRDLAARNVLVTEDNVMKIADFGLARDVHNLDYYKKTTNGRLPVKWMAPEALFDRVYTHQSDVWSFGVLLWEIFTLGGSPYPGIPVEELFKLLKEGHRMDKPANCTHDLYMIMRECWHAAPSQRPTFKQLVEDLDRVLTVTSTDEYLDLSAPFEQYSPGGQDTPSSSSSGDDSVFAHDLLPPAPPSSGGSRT
In short: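 Doxycycline-induced (1 μg/ml) HEK-293 cells expressing wild-type human FGFR3, treated 1 h with compound (1:3 series, top final 5 μM), then stimulated 5 min with 100 ng/ml FGF-acidic. Phospho-FGFR3 measured by ELISA (total FGFR3 capture, phosphotyrosine detection, OD 450 nm); IC50 from 4-parameter fit of POC values.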

[3] = biological target: T1, HEK-293 cells transfected with dox-inducible human wild type FGFR3; assay: FGFR3 pERK cell assay; format: cell-based; details: HEK-293 dox-inducible FGFR3, 1 hour compound, 100 ng/ml FGF-acidic; maximum concentration 5 μM
In short: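 Doxycycline-induced cells preincubated 1 h at 37 °C with compound (1:3 dilutions, top 5 μM final), then stimulated 5 min with 100 ng/ml FGF-acidic. Lysate phospho-ERK1/2 measured by MSD sandwich assay; IC50 at 50 POC from 4-parameter fit, normalised to no-compound and control-compound wells.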

[4] = biological target: phosphorylated FGFR3 (SEQ ID NO: 5, amino acids 449 to 759) (Homo sapiens (Human), UniProt P22607); assay: FGFR enzyme binding assay (HTRF tracer displacement), FGFR3; details: 5 nM phosphorylated FGFR3, average of multiple determinations if made
Chain of phosphorylated FGFR3 (SEQ ID NO: 5, amino acids 449 to 759) (P22607 449-759): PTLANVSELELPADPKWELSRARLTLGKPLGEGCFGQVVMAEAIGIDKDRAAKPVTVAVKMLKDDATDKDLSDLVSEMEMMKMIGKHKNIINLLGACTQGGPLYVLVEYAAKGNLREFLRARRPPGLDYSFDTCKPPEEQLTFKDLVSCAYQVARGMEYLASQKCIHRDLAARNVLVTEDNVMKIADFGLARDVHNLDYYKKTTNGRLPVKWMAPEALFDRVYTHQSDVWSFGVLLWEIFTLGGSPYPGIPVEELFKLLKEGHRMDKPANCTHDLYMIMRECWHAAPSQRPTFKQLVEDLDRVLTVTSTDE
In short: as §1

[5] = biological target: HEK-293 cells transfected with dox-inducible human wild type FGFR1 (Homo sapiens (Human), UniProt P11362); assay: FGFR1 pERK cell assay; format: cell-based; details: HEK-293 dox-inducible FGFR1, 1 hour compound, 100 ng/ml FGF-acidic; maximum concentration 5 μM
Chain of HEK-293 cells transfected with dox-inducible human wild type FGFR1 (P11362 22-822): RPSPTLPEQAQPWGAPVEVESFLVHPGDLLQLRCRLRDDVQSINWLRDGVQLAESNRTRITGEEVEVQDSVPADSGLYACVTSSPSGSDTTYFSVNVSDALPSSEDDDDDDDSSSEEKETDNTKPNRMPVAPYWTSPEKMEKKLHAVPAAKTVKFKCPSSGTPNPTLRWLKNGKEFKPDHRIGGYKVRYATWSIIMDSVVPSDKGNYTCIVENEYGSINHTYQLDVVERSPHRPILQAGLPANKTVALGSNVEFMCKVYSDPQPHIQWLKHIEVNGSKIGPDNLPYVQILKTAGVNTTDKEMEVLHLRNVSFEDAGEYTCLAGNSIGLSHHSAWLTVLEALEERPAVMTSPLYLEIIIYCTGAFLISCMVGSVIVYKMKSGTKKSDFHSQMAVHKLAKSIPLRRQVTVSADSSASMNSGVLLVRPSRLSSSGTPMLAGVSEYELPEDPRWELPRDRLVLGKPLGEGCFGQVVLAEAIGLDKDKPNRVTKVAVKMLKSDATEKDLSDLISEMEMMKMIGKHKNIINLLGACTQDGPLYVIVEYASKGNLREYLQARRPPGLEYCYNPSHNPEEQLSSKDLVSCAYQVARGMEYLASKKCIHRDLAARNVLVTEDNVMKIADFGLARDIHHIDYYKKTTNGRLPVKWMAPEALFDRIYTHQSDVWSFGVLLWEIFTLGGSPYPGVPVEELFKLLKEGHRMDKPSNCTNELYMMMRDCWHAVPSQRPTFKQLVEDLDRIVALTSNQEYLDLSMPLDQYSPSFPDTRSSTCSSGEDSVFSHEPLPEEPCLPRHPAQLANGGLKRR
In short: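 In HEK-293 cells with dox-induced human wild-type FGFR1, compounds (1:3 dilutions, top 5 μM final) were applied 1 h at 37°C before 5 min stimulation with 100 ng/ml FGF-acidic. Phospho-ERK1/2 measured by MSD sandwich immunoassay; IC50 from 4-parameter fit of POC versus vehicle and control compound.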

dephosphorylated FGFR2 = dephosphorylated FGFR2 (Homo sapiens (Human), UniProt P21802); assay: FGFR enzyme binding assay (HTRF tracer displacement), FGFR2; details: 5 nM dephosphorylated FGFR2, average of multiple determinations if made
Chain of dephosphorylated FGFR2 (P21802 22-821): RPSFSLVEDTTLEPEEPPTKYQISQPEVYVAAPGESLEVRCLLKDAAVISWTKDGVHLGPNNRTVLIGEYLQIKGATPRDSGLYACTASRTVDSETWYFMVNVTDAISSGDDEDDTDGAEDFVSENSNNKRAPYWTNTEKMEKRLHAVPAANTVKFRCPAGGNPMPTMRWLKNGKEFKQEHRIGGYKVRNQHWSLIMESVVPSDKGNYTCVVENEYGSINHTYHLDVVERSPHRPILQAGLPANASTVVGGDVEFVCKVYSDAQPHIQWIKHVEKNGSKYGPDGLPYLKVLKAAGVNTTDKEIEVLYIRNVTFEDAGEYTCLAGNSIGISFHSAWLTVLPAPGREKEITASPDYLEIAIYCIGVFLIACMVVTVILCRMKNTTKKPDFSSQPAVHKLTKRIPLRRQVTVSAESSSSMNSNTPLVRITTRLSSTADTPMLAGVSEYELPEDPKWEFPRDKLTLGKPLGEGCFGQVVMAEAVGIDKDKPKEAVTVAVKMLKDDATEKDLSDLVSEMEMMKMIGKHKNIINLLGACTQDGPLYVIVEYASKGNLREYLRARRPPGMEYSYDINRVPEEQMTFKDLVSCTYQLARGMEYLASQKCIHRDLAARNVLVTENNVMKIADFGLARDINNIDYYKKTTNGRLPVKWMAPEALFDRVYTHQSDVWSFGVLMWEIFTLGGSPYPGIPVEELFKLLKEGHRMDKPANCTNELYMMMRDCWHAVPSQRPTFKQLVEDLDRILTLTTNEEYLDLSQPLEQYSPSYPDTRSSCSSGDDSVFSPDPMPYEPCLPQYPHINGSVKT
In short: as §1

Chain of dephosphorylated FGFR1 (SEQ ID NO: 1, amino acids 458 to 765) (P11362 458-765): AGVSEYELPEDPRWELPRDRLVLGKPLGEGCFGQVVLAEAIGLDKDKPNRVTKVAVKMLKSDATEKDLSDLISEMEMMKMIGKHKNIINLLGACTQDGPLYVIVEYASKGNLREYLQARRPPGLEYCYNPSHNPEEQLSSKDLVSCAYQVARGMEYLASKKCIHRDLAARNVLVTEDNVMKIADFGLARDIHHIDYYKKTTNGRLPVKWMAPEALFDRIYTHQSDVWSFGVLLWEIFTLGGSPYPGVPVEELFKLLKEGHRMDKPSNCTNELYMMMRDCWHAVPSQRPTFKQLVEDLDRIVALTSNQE

Row | SMILES | pIC50 [1] | pIC50 [2] | pIC50 [3] | pIC50 [4] | pIC50 [5] | pIC50 (dephosphorylated FGFR2)
1 | C=CC(=O)N1CCC(C#N)(C(=O)N2CCC(n3cc(-c4cc(OC)c5c(C#N)cnn5c4)cn3)CC2)C1 (centres unmarked) [Example 31, 6-(1-(1-(1-acryloyl-3-cyanopyrrolidine-3-carbonyl)piperidin-4-yl)-1H-pyrazol-4-yl)-4-methoxypyrazolo[1,5-a]pyridine-3-carbonitrile] | 7.59 | 7.82 | 7.59 | 8.70 | 6.61 | –
2 | C=CC(=O)N1CC(C#N)(C(=O)N2CCC(n3cc(-c4cc(OC)c5c(C#N)cnn5c4)cn3)CC2)C1 [Example 39, 6-(1-(1-(1-acryloyl-3-cyanoazetidine-3-carbonyl)piperidin-4-yl)-1H-pyrazol-4-yl)-4-methoxypyrazolo[1,5-a]pyridine-3-carbonitrile] | 7.59 | 7.00 | 8.10 | 8.70 | 7.28 | –
3 | C=CC(=O)N1C2COCC1CN(C(=O)N1CCC(n3cc(-c4cc(OC)c5c(C#N)cnn5c4)cn3)CC1)C2 [Example 3, 6-(1-(1-(9-acryloyl-3-oxa-7,9-diazabicyclo[3.3.1]nonane-7-carbonyl)piperidin-4-yl)-1H-pyrazol-4-yl)-4-methoxypyrazolo[1,5-a]pyridine-3-carbonitrile] | 7.36 | 7.39 | 6.97 | 8.52 | 6.06 | –
4 | C=CC(=O)N1CC(OC)(C(=O)N2CCC(n3cc(-c4cc(OC)c5c(C#N)cnn5c4)cn3)CC2)C1 [Example 41, 6-(1-(1-(1-acryloyl-3-methoxyazetidine-3-carbonyl)piperidin-4-yl)-1H-pyrazol-4-yl)-4-methoxypyrazolo[1,5-a]pyridine-3-carbonitrile] | 7.21 | 8.00 | 7.92 | 8.52 | 7.04 | –
5 | C=CC(=O)N1CC(C(=O)N2CCC(n3cc(-c4cc(OC)c5c(C#N)cnn5c4)cn3)CC2)C1 [Example 36, 6-(1-(1-(1-acryloylazetidine-3-carbonyl)piperidin-4-yl)-1H-pyrazol-4-yl)-4-methoxypyrazolo[1,5-a]pyridine-3-carbonitrile] | 7.23 | 7.43 | 7.37 | 8.40 | 6.44 | –
6 | C=CC(=O)N1C2CC1CN(C(=O)N1CCC(n3cc(-c4cc(OC)c5c(C#N)cnn5c4)cn3)CC1)C2 [Example 1, 6-(1-(1-(6-acryloyl-3,6-diazabicyclo[3.1.1]heptane-3-carbonyl)piperidin-4-yl)-1H-pyrazol-4-yl)-4-methoxypyrazolo[1,5-a]pyridine-3-carbonitrile] | 7.30 | 7.59 | 7.07 | 8.40 | 6.28 | –
7 | C=CC(=O)Nc1ccc(C(=O)N2CC[C@H](n3cc(-c4cc(OC)c5c(C#N)cnn5c4)cn3)C2)cc1C [Example 70, (S)-N-(4-(3-(4-(3-cyano-4-methoxypyrazolo[1,5-a]pyridin-6-yl)-1H-pyrazol-1-yl)pyrrolidine-1-carbonyl)-2-methylphenyl)acrylamide] | 6.70 | 6.98 | – | 7.52 | – | –
8 | C=CC(=O)Nc1ccc(C(=O)N2CC[C@H](n3cc(-c4cc(OC)c5c(C#N)cnn5c4)cn3)C2)cc1 [Example 66, (S)-N-(4-(3-(4-(3-cyano-4-methoxypyrazolo[1,5-a]pyridin-6-yl)-1H-pyrazol-1-yl)pyrrolidine-1-carbonyl)phenyl)acrylamide] | 7.14 | 7.09 | – | 8.00 | – | –
9 | C=CC(=O)N1CCC(C(=O)N2CCC(n3cc(-c4cc(OC)c5c(C#N)cnn5c4)cn3)CC2)C(F)(F)C1 (centres unmarked) [Example 15, 6-(1-(1-(1-acryloyl-3,3-difluoropiperidine-4-carbonyl)piperidin-4-yl)-1H-pyrazol-4-yl)-4-methoxypyrazolo[1,5-a]pyridine-3-carbonitrile] | 7.49 | 8.00 | – | 8.70 | – | –
10 | C=CS(=O)(=O)Nc1cccc(C(=O)N2CCC(n3cc(-c4cc(OC)c5c(C#N)cnn5c4)cn3)CC2)c1 [Example 188, N-(3-(4-(4-(3-cyano-4-methoxypyrazolo[1,5-a]pyridin-6-yl)-1H-pyrazol-1-yl)piperidine-1-carbonyl)phenyl)eth-enesulfonamide] | 7.85 | 7.62 | 7.72 | 9.00 | 6.87 | –
11 | C=CC(=O)Nc1ccc(C(=O)N2CC[C@@H](n3cc(-c4cc(OC)c5c(C#N)cnn5c4)cn3)C2)cc1 [Example 55, (R)-N-(4-(3-(4-(3-cyano-4-methoxypyrazolo[1,5-a]pyridin-6-yl)-1H-pyrazol-1-yl)pyrrolidine-1-carbonyl)phenyl)acrylamide] | 7.01 | 7.19 | 7.15 | 8.15 | 6.42 | –

More lines, now with the values ahead:

Row | pIC50 [1] | pIC50 [2] | pIC50 [3] | pIC50 [4] | pIC50 [5] | pIC50 (dephosphorylated FGFR2) | SMILES
12 | 6.69 | – | 7.47 | 8.52 | 6.22 | 7.92 | C=CC(=O)N1CC(OC)(C(=O)N2CCC(n3ncc(-c4cc(OC)c5c(C#N)cnn5c4)c3C)CC2)C1 [Example 88, 6-(1-(1-(1-acryloyl-3-methoxyazetidine-3-carbonyl)piperidin-4-yl)-5-methyl-1H-pyrazol-4-yl)-4-methoxypyrazolo[1,5-a]pyridine-3-carbonitrile]
13 | 7.37 | 7.51 | 7.11 | 8.52 | 6.20 | – | C=CC(=O)N1CC(C(=O)N2CCC(n3cc(-c4cc(OC)c5c(C#N)cnn5c4)cn3)CC2)C1C (centres unmarked) [Example 42, 6-(1-(1-(1-acryloyl-2-methylazetidine-3-carbonyl)piperidin-4-yl)-1H-pyrazol-4-yl)-4-methoxypyrazolo[1,5-a]pyridine-3-carbonitrile]
14 | 6.43 | 6.09 | 6.07 | 7.64 | 5.47 | – | C=CC(=O)N1CCC(C(=O)N2CCC(n3ncc(-c4cc(OC)c5c(C#N)cnn5c4)c3C)CC2)CC1 [Example 82, 6-(1-(1-(1-acryloylpiperidine-4-carbonyl)piperidin-4-yl)-5-methyl-1H-pyrazol-4-yl)-4-methoxypyrazolo[1,5-a]pyridine-3-carbonitrile]
15 | 7.27 | 7.19 | 7.05 | 8.40 | 6.37 | – | C=CC(=O)N1CC(C(=O)N2CCC(n3cc(-c4cc(OC)c5c(C#N)cnn5c4)cn3)CC2)C1(C)C (centres unmarked) [Example 43, 6-(1-(1-(1-acryloyl-2,2-dimethylazetidine-3-carbonyl)piperidin-4-yl)-1H-pyrazol-4-yl)-4-methoxypyrazolo[1,5-a]pyridine-3-carbonitrile]
16 | 6.60 | 6.44 | – | 7.37 | – | – | C=CC(=O)N1CC[C@@H](C(=O)N2CCC(n3cc(-c4cc(OC)c5c(C#N)cnn5c4)cn3)CC2)C1 [Example 29, (R)-6-(1-(1-(1-acryloylpyrrolidine-3-carbonyl)piperidin-4-yl)-1H-pyrazol-4-yl)-4-methoxypyrazolo[1,5-a]pyridine-3-carbonitrile]
17 | 7.42 | 7.80 | – | 8.30 | – | – | C=CC(=O)N1CC(CC)(C(=O)N2CCC(n3cc(-c4cc(OC)c5c(C#N)cnn5c4)cn3)CC2)C1 [Example 40, 6-(1-(1-(1-acryloyl-3-ethylazetidine-3-carbonyl)piperidin-4-yl)-1H-pyrazol-4-yl)-4-methoxypyrazolo[1,5-a]pyridine-3-carbonitrile]
18 | 7.24 | 7.40 | – | 8.30 | – | – | C=CC(=O)N1CC2(CCC(C(=O)N3CCC(n4cc(-c5cc(OC)c6c(C#N)cnn6c5)cn4)CC3)CC2)C1 [Example 21, 6-(1-(1-(2-acryloyl-2-azaspiro[3.5]nonane-7-carbonyl)piperidin-4-yl)-1H-pyrazol-4-yl)-4-methoxypyrazolo[1,5-a]pyridine-3-carbonitrile]
19 | 6.46 | 6.47 | 6.35 | 7.74 | 5.35 | – | C=CC(=O)N1CC(C(=O)N2CCC(n3cc(-c4cc(OC)c5c(C#N)cnn5c4)c(C)n3)CC2)C1 [Example 94, 6-(1-(1-(1-acryloylazetidine-3-carbonyl)piperidin-4-yl)-3-methyl-1H-pyrazol-4-yl)-4-methoxypyrazolo[1,5-a]pyridine-3-carbonitrile]
